The values that follow come from patent US20160067247A1, “NOVEL USE” (GlaxoSmithKline Intellectual Property (No.2) Limited, priority 2012, published 2016).

In assay [1] the test system is AKT phosphorylation (pAKT) at position Ser473. As to the kind of experiment: FBS stimulated AKT (S473) phosphorylation in primary human lung fibroblasts, MSD assay (Example 2). The format is cell-based. The settings on record: Fibroblast, 0.5 h, 20% FBS 30 minute, read-out: mean pIC50, AKT (S473) phosphorylation (converted). How it is done: Primary human fibroblasts were isolated by explant culture from non-IPF lung tissue, obtained post mortem following sudden trauma, and IPF lung tissue obtained from the lungs of IPF patients which were removed for transplantation or biopsy. Explants were cultured in DMEM containing high glucose and sodium pyruvate (PAA laboratories, catalogue #E15-011) with penicillin/streptomycin (Sigma #P4333), amphotericin B (Sigma #A2942), L-glutamine (Gibco #25030) and 20% FBS (foetal bovine serum, Lonza, catalogue #14-801F, Lot #1SB003) at 37° C., 100% humidity, 10% CO2. Cells were designated non-IPF (UCL marked 0110 and 0610) and IPF (UCL marked 0207, 0208, 0308, 0507 and 0508) based on medical diagnosis.
Human lung primary fibroblast cell lines were cultured in DMEM containing high glucose and sodium pyruvate supplemented with L-glutamine, penicillin/streptomycin and 10% FBS (complete DMEM) at 37° C., 100% humidity, 10% CO2. Cells were split into T175 flasks (NUNC #159910) 2 to 3 days prior to assay set-up at a density which yields approximately 70-80% confluence at time of harvest for assay. Cells were harvested using 0.25% trypsin-EDTA (Gibco #25300), washed and re-suspended in complete DMEM. Cell counts were performed on the cell suspension using a Handheld Automated Cell Counter (Millipore #PHCC00000) with 60 μm sensors (Millipore #PHCC60050). […]

Assay [2] has as its system AKT phosphorylation (Ser 473). As to the kind of experiment: FCS induced AKT phosphorylation (Ser473) in IPF primary human lung fibroblasts, MSD assay (Example 1). Type of assay: cell-based. Conditions: Fibroblast, 0.5 h, fibroblasts from n=4 IPF lungs, 10% FCS, 30 minutes, geometric mean (95% CI 0.83-8 nM), read-out: IC50 for inhibition of FCS induced AKT phosphorylation. How it is done:
Phosphorylation of AKT is widely accepted as an indication of PI3-kinase activity, and is utilised here to obtain an IC50 for the effect of 2,4-difluoro-N-{2-(methyloxy)-5-[4-(4-pyridazinyl)-6-quinolinyl]-3-pyridinyl}benzenesulfonamide on primary human lung fibroblasts isolated from the IPF patients, in addition to macrophages isolated from IPF bronchoalveolar lavage (BALF).
Fibroblasts are seeded in 96 well plates at a density of 10,000 cells per well. Following 24 hours of serum starvation, fibroblasts are pre-incubated for 15 minutes in serum free buffer containing a range of concentrations of 2,4-difluoro-N-{2-(methyloxy)-5-[4-(4-pyridazinyl)-6-quinolinyl]-3-pyridinyl}benzenesulfonamide (50 μl volumes per well, comprising 1:10 dilutions of inhibitor ranging from [3×10^−12M] to [3×10^−7M] in serum free DMEM). Fibroblasts are stimulated by the addition of foetal calf serum (FCS) to a final volume of 10%. 30 minutes after stimulation, supernatants are rapidly decanted, and the cell plate placed on ice. 35 μl of 1× Complete Lysis buffer is added to each well and incubated for 10 minutes at 4° C., and stored at −80° C. prior to further analysis. […] The assay protocol is completed as per manufacturer's instructions and plates analysed on an MSD SECTOR Imager. Data are read out as the % of total AKT phosphorylated at position Ser473.

Structures are written as SMILES. Like-named read-outs stand apart in the source and are kept apart here.

In the case of `COc1ncc(-c2ccc3nccc(-c4ccnnc4)c3c2)cc1NS(=O)(=O)c1ccc(F)cc1F` [2,4-difluoro-N-{2-(methyloxy)-5-[4-(4-pyridazinyl)-6-quinolinyl]-3-pyridinyl}benzenesulfonamide], the IC50 in assay [1] (IPF fibroblasts, n=5 cell lines (+/-0.1 SEM)) is 1.58 nM; in assay [1] (primary human non-IPF fibroblasts, n=2 lines (range 8.8-9.4)), 0.794 nM; in assay [2], 2.58 nM.
